What was measured:
[1] = target: T1, Xanthine dehydrogenase/oxidase (Bos taurus, UniProt P80457); test: Inhibition of bovine milk xanthine oxidase using xanthine as substrate preincubated for 15 mins followed by substrate addition measured after 30 mins by UV-VIS spectrophotometric analysis; details: for inhibition (INH): cattle, 0.5 h
[2] = target: T1, Xanthine dehydrogenase/oxidase; test: Potency index, ratio of IC50 for allopurinol to IC50 for test compound for inhibition of bovine milk xanthine oxidase using xanthine as substrate preincubated for 15 mins followed by substrate addition measured after 30 mins by UV-VIS spectrophotometric analysis; details: cattle, 0.5 h

T1 sequence (P80457 whole entry): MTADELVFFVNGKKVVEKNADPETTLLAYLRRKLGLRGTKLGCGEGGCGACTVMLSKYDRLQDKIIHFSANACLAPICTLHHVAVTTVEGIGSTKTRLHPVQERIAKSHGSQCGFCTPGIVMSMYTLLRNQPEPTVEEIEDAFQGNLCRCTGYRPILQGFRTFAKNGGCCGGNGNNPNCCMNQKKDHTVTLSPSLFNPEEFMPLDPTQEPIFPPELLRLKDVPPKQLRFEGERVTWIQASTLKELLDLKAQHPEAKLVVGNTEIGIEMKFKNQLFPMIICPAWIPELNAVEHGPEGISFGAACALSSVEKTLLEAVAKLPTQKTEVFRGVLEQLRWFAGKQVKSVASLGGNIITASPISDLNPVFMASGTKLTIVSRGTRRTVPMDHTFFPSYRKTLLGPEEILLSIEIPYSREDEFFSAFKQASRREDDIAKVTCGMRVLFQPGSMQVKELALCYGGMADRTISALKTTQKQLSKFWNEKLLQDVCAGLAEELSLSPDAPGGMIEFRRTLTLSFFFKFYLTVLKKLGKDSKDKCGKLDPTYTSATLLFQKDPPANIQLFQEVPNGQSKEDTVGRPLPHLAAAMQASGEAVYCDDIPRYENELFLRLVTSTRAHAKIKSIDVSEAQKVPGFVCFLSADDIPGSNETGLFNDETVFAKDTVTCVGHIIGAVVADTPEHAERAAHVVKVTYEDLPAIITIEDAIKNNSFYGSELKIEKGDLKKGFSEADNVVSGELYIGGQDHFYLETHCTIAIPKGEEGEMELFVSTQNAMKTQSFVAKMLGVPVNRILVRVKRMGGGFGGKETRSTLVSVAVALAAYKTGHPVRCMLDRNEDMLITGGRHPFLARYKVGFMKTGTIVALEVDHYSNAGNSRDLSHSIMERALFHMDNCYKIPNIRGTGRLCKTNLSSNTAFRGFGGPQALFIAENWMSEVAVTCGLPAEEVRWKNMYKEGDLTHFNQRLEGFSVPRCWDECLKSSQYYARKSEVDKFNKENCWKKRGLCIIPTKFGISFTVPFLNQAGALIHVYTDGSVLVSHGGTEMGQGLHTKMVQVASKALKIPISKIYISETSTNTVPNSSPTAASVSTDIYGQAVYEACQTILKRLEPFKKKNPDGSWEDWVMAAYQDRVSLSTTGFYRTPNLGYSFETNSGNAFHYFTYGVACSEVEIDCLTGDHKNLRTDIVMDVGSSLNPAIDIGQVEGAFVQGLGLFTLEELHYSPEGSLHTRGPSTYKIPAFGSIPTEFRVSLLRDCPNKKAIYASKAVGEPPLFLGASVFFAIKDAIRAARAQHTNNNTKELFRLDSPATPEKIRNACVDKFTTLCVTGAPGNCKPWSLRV

Row | Structure (SMILES) | IC50 [1] [µM] | inhibition (INH) [1] | Ratio IC50 [2]
1 | COc1cc(-c2oc3cc(O)c(OC)c(O)c3c(=O)c2OC)cc(OC)c1OC | 4.54 | Dose-dependent effect | –
2 | COc1ccc(-c2oc3cc(OC)cc(O)c3c(=O)c2OC)cc1 | 9.79 | Dose-dependent effect | –
3 | COc1cc(-c2oc3cc(O)c(OC)c(O)c3c(=O)c2OC)cc(O)c1OC | 6.95 | Dose-dependent effect | –
4 | COc1c(-c2ccc(O)cc2)oc2cc(O)cc(O)c2c1=O [ISOKAEMPFERIDE] | 0.004 | Dose-dependent effect | 63
5 | COc1c(O)cc2oc(-c3ccc(O)cc3)c(OC)c(=O)c2c1O [3,6-DIMETHOXY KAEMPFEROL] | 0.05 | Dose-dependent effect | 5
6 | COc1ccc(-c2oc3cc(OC)c(OC)c(O)c3c(=O)c2OC)cc1 | 14.9 | Dose-dependent effect | –
7 | COc1cc(-c2oc3cc(O)cc(O)c3c(=O)c2OC)cc(O)c1OC | 0.09 | Dose-dependent effect | 3
8 | COc1ccc(-c2oc3cc(O)c(OC)c(O)c3c(=O)c2OC)cc1 [SANTIN] | 0.22 | Dose-dependent effect | –
9 | COc1cc(O)c2c(=O)c(OC)c(-c3cc(O)c(OC)c(OC)c3)oc2c1 | 21 | Dose-dependent effect | –

Source: ChEMBL document CHEMBL4251584, “Xanthine oxidase inhibitory activity of natural and hemisynthetic flavonoids from Gardenia oudiepe (Rubiaceae) in vitro and molecular docking studies” (Eur J Med Chem, 2018)
